# From US7625887B2, “Receptor agonists” (Takeda Pharmaceutical Company Limited, priority 2003, dated 2009)
# How the values were obtained:
# [1] = tested on: THP-TGR5 cells; assay: suppression of LPS induced TNF α secretion in THP-TGR5 cells; type: cell-based, human; conditions: non-addition: 11 with LPS, 2.7 without LPS
# Protocol: TGR5 high expression cells were established by introducing TGR5 gene into human macrophage cells line THP-1. According to a conventional method, pcDNA-TGR5 incorporating cDNA of human TGR5 in pcDNA3.1 (Invitrogen) was prepared. Then, THP-1 was cultured in a medium (RPMI1640 10% FBS), and pcDNA-TGR5 was introduced thereinto using lipofectamine (Gibco BRL) according to conventional methods. Thereafter, G418 (Gibco BRL) was added to the medium to select resistant strains, and cells line, THP-TGR5 that expresses TGR5 stably and highly was established.
# THP-TGR5 thus obtained was diluted to a concentration of 1×10^5/well and cultured overnight in a 96 well plate in the presence of 10^−8M phorbol ester (Wako Pure Chemical Industries, Ltd.). THP-TGR5 after culture was cultured for 1 hr in a medium containing a test compound or a control medium (0.1 ml) free of a test compound, 0.1 ml of a medium containing the same concentration of the test compound or a control medium free of the test compound, each of which containing LPS for induction of TNF α secretion was added (concentration at the time of addition 50 ng/ml) and the mixture was incubated at 37° C. under 5% CO2 for 14 hrs. The culture supernatant was collected and the TNF α content was measured with the growth suppressing effect on the TNF sensitive cell line L929 (RIKEN Institute) as an index.
# L929 cells were seeded in a 96 well plate at 1.2×10^4/well and incubated overnight at 37° C. under 5% CO2. The obtained culture product was cultured overnight in a medium (phenol red free Dulbecco's Modified Eagle Medium (Invitrogen) supplemented with 10% fetal bovine serum (Invitrogen), 100 U/ml penicillin and 100 μg/ml streptomycin), which contained the aforementioned THP-TGR5-containing culture supernatant and 2 μg/ml Actinomycin D (Wako Pure Chemical Industries, Ltd.). The TNF α content was determined by measuring the growth of the L929 cells in the obtained culture product using a Cell Counting Kit-8 (Wako Pure Chemical Industries, Ltd.). As the standard sample, human recombinant TNF α (Genzyme) was used.
# [2] = target: T1, human TGR5 (Homo sapiens, UniProt Q8TDU6); assay: cAMP production increasing activity in human TGR5 expressing CHO cells; type: cell-based; conditions: test compound 1 μM, 30 min; 1 μM lithocholic acid = 100%, no addition = 0%; average of 3 groups
# T1 construct: expressed in transfected cells; host or cells: CHO cells
# T1 sequence (Q8TDU6 1-330): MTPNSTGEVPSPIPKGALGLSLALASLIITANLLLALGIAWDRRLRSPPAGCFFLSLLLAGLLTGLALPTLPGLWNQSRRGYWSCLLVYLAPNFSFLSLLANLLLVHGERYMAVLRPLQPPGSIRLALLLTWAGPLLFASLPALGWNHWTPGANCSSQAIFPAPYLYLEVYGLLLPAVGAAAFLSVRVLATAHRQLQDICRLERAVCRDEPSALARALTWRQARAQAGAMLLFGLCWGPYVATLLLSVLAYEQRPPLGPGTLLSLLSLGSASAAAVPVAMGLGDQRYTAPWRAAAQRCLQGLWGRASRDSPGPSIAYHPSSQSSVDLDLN
# Protocol: As the assay buffer, Hank's balanced salt solution (HBSS, Invitrogen) supplemented with 0.1% bovine serum albumin (BSA, Sigma) and 0.5 mM 3-isobutyl-1-methylxanthine (IBMX, Sigma) was used. A test compound sample (1 μM) diluted with the assay buffer was added to the cells. The cells were incubated at 37° C. for 30 min. and the supernatant was suctioned. The intracellular cAMP amount increased by the stimulation of the test compound was quantitatively determined using a HitHunter™ EFC Cyclic AMP Chemiluminescence Assay Kit (ABI) kit.
# [3] = target: T1, human TGR5; assay: as above; type: cell-based; conditions: read-out: EC50 value (concentration necessary to make the cAMP production amount 50%)
# [4] = target: T2, rat TGR5 (Rattus norvegicus, UniProt Q80T02); assay: cAMP production increasing activity in rat type TGR5 expressing CHO cells; type: cell-based; conditions: 0.5 h, read-out: cAMP producing activity (control %)
# T2 construct: expressed in transfected cells; host or cells: CHO cells
# T2 sequence (Q80T02 1-329): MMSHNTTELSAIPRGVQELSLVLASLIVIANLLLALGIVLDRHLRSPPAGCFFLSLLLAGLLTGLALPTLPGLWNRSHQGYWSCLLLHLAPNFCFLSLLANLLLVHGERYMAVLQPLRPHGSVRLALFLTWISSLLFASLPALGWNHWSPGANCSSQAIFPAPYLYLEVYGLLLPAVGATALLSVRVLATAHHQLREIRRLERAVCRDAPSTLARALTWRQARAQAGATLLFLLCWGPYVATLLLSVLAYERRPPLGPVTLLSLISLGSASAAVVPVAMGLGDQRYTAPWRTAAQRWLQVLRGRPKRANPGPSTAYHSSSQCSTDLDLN
# Protocol: (§1) After culture, the cells were detached with 0.5 mM EDTA/PBS, washed with PBS, and suspended in Buffer 1 (HBSS+0.1% BSA, 25 mM HEPES pH 7.3, 0.5 mM IBMX) at a density of 1×10^7 cells/ml. The obtained cell suspension (460 μl), anti-cAMP acceptor beads (23 μl) of AlphaScreen cAMP assay kit (Perkin Elmer) and Buffer 1 (667 μl) were mixed and dispensed to a white 96 well plate (Costar) by 10 μl. Then, a test compound diluted with Buffer 1 was added to each well by 10 μl. At this time, one row of the plate was free of the cell suspension but added with anti-cAMP acceptor beads (9 μl) and Buffer 1 (441 μl) alone, and serial dilutions of cAMP were added instead of the test compound and used as the standard. A mixture of the cell suspension and the test compound contained in the plate was allowed to react at room temperature for 30 min. […] The plate was shaken at room temperature for 2.5 hrs and fluorescence intensity was measured by Fusion α (Parkin Elmer), and the cAMP concentration of each well was calculated using the cAMP standard on each plate.
# [5] = tested on: NCI-H716 cells; assay: GLP-1 secretion from NCI-H716 cell line; type: cell-based, human; conditions: 2 hrs, secretion amount in Base was 100%
# Protocol: NCI-H716 cells secrete Glucagon-like peptide-1 (GLP-1). GLP-1 is a peptide useful for controlling blood glucose level because it acts on the pancreas to cause secretion of insulin and the like. In the same manner as in Experimental Example 9, NCI-H716 (ATCC) was seeded in a 96 well plate and, after incubation for 2 days, used for the following secretion test. As a buffer for secretion test, modified Krebs-Ringer bicarbonate buffer (KRBH, 116 mM NaCl, 4.7 mM KCl, 1.2 mM KH2PO4, 1.2 mM MgSO4, 2.5 mM CaCl2, 25 mM NaHCO3, 24 mM HEPES, pH 7.3) supplemented with glucose 5.5 mM and BSA 0.1% was used. The cells were washed once with the buffer for secretion test, preincubated at 37° C. under 5% CO2, bile acid diluted with the buffer for secretion test was added and the cells were cultured at 37° C. under 5% CO2 for 2 hrs. The cell culture supernatant was collected, cryopreserved and the GLP-1 content in the supernatant was measured using a GLP-1 measurement EIA kit (Linco) The results are shown in Table 9. In the Table, Base means non-addition of a test compound.
# [6] = tested on: guinea pig TGR5; assay: cAMP production increasing activity in guinea pig TGR5 expressing CHO cells; type: cell-based; conditions: test compound 2 μM; 10 μM lithocholic acid = 100%; average of 3 groups
# Protocol: as §1, with “The guinea pig type TGR5 expressing CHO cells were seeded in one 150 cm^2 flask at 1×10^7 cells, and cultured overnight at 37° C., 5% CO2. After” for “After”
# [7] = tested on: NCI-H716 cells; assay: intracellular cAMP production increasing action in NCI-H716 cells; type: cell-based, human; conditions: 2 hrs, production amount in TLCA (50 μM) was 100%, Base 11
# Protocol: NCI-H716 (ATCC) was suspended in a medium (Dulbecco's Modified Eagle Medium (DMEM, Invitrogen) supplemented with 10% fetal bovine serum (Invitrogen), 100 U/ml penicillin and 100 μg/ml streptomycin), seeded in a 96 well plate, cultured for 2 days and used for cAMP production assay. As a cAMP assay buffer, modified Krebs-Ringer bicarbonate buffer (KRBH, 116 mM NaCl, 4.7 mM KCl, 1.2 mM KH2PO4, 1.2 MM MgSO4, 2.5 mM CaCl2, 25 mM NaHCO3, 24 mM HEPES pH 7.3), supplemented with glucose 5.5 mM, bovine serum albumin (BSA) 0.1%, and 3-isobutyl-1-methylxanthine (IBMX, Sigma) 1 mM, was used. The cells were washed once with cAMP assay buffer. Bile acids (50 μM) diluted with cAMP assay buffer or the compounds of the present invention (10 μM) were added thereto and the cells were incubated for 2 hrs. The culture supernatant was discarded, and the cAMP production amount was measured by cAMP Screen System (ABI). In the Table, Base means non-addition of a test compound.
# [8] = tested on: mock CHO cells free of human TGR5 expression; assay: cAMP production increasing activity in mock CHO cells free of human TGR5 expression; type: cell-based; conditions: average of 3 groups
# Protocol: As the assay buffer, Hank's balanced salt solution (HBSS, Invitrogen) supplemented with 0.1% bovine serum albumin (BSA, Sigma) and 0.2 mM 3-isobutyl-1-methylxanthine (IBMX, Sigma) was used. The cells were washed twice with the assay buffer and preincubated at 37° C. for 30 min. The cells were washed twice, and test compound samples (10 μM) diluted with the assay buffer to various concentrations were added. The cells were incubated at 37° C. for 20 min. The culture supernatant was discarded, and the cAMP production amount was measured using a cAMP Screen System (ABI).
smiles,measurement,setting,value
"CCOC(=O)CC1C(=O)N(CC(C)(C)C)c2ccccc2CN1C(=O)OC(C)(C)C (stereo not shown) [Reference Example 1B, tert-butyl 3-(2-ethoxy-2-oxoethyl)-1-neopentyl-2-oxo-1,2,3,5-tetrahydro-4H-1,4-benzodiazepine-4-carboxylate]",TNF α,[1]; test compound 10 μM,0.63 ng/mL
"CC(=O)NCc1cccc([C@@H]2O[C@H](CC(=O)NCc3ccccc3F)C(=O)N(CC(C)(C)C)c3ccc(Cl)cc32)c1 (relative stereo) [Reference Example 3, 2-[3,5-trans-5-[3-(acetylaminomethyl)phenyl]-7-chloro-1-neopentyl-2-oxo-1,2,3,5-tetrahydro-4,1-benzoxazepin-3-yl]-N-(2-fluorobenzyl)acetamide]",TNF α,[1]; test compound 10 μM,0.33 ng/mL
same,cAMP production increasing activity (control %),[2],85 control %
"COC(=O)NCc1cccc([C@@H]2O[C@H](CC(=O)NCc3ccccc3F)C(=O)N(CC(C)(C)C)c3ccc(Cl)cc32)c1 (relative stereo) [Reference Example 6, methyl [3-[3,5-trans-7-chloro-3-[2-[(2-fluorobenzyl)amino]-2-oxoethyl]-1-neopentyl-2-oxo-1,2,3,5-tetrahydro-4,1-benzoxazepin-5-yl]benzyl]carbamate]",TNF α,[1]; test compound 10 μM,0.32 ng/mL
same,cAMP production increasing activity (control %),[2],98 control %
"COC(=O)NCc1cccc(C2OC(CC(=O)NCc3ccccc3F)C(=O)N(CC(C)(C)COC(C)=O)c3ccc(Cl)cc32)c1 (stereo not drawn) [Example 46, 3-[3,5-trans-7-chloro-3-[2-[(2-fluorobenzyl)amino]-2-oxoethyl]-5-[3-(methoxycarbonylaminomethyl)phenyl]-2-oxo-2,3-dihydro-4,1-benzoxazepin-1(5H)-yl]-2,2-dimethylpropyl acetate]",EC50,[3],< 100 nM
same,activation at 2 µM,[4],104%
same,GLP-1 secretion increase (%),[5]; 5 μM,165%
same,cAMP producing activity (control %),[6],77 control %
same,cAMP production increasing activity (%),[7]; 10 μM,112%
"C=C[C@@]1(C)CC(=O)[C@]2(O)[C@@]3(C)[C@@H](O)CCC(C)(C)[C@@H]3[C@H](O)[C@H](OC(C)=O)[C@@]2(C)O1 [Forskolin, reference compound]",cAMP production increasing activity,"[8]; Experimental Example 2, Forskolin 2 μM, Base 0.85",4.02 pmol
same,cAMP production increasing activity,"[8]; Experimental Example 4, test compounds 2 μM, Base 0.28",5.68 pmol
same,cAMP production increasing activity,"[8]; Experimental Example 5, test compounds 2 μM, Base 0.19",3.01 pmol
"C[C@H](CCC(=O)O)[C@H]1CC[C@H]2[C@@H]3CC[C@@H]4C[C@H](O)CC[C@]4(C)[C@H]3CC[C@]12C [lithocholic acid, reference compound]",TNF α,[1]; bile acid 50 μM,1.1 ng/mL
same,GLP-1 secretion increase (%),[5]; bile acid 25 μM,121%
same,cAMP production increasing activity (%),[7]; bile acid 50 μM,107%
